Assay results: US6492381B1, “Tricyclic carbamate compounds useful for inhibition of G-protein function and for treatment of proliferative diseases” (Schering Corp., priority 1993, dated 2002)

Tests used:
[1] = test system: C-f-1 [mouse fibroblast transformed with c-fos oncogene]; experiment: In vivo anti-tumor study, C-f-1 s.c. tumor; conditions: C-f-1 s.c. in athymic nu/nu mice, BID
Source text: (§1) In Vivo Anti-Tumor Studies
(§2) Tumor cells (5×10^5 to 8×10^6 of M27 [mouse Lewis lung carcinoma], A431 [human epidermal carcinoma] or SW620 [human colon adenocarcinoma (lymph node metastasis)]) are innoculated subcutaneously into the flank of 5-6 week old athymic nu/nu female mice. For the C-f-1 [mouse fibroblast transformed with c-fos oncogene] tumor model, 2 mm^3 tumor fragments are transplanted subcutaneously into the flank of 5-6 week old athymic nu/nu female mice. Tumor bearing animals are selected and randomized when the tumors are established. Animals are treated with vehicle (beta cyclodextran for i.p. or corn oil for p.o.) only or compounds in vehicle twice a day (BID) for 5 (1-5) or 7 (1-7) days per week for 2 (×2) or 4 (×4) weeks. The percent inhibition of tumor growth relative to vehicle controls are determined by tumor measurements.

[2] = test system: M27 [mouse Lewis lung carcinoma]; experiment: In vivo anti-tumor study, M27 s.c. tumor; conditions: po
Source text: as §1, §2

[3] = molecular target: T1, geranylgeranyl protein transferase (GGPT) I (Rattus norvegicus, UniProt P53610+Q04631); experiment: In vitro enzyme assay: inhibition of geranylgeranyl protein transferase I; type: biochemical
T1 construct: were partially purified from rat brain by ammonium sulfate fractionation followed by Q-Sepharose; from tissue; host or cells: rat brain
Source text: 1. In vitro enzyme assays: Inhibition of farnesyl protein transferase and geranylgeranyl protein transferase.
Both farnesyl protein transferase (FPT) and geranylgeranyl protein transferase (GGPT) I were partially purified from rat brain by ammonium sulfate fractionation followed by Q-Sepharose (Pharmacia, Inc.) anion exchange chromatography essentially as described by Yokoyama et al (Yokoyama, K., et al., (1991). A protein geranylgeranyltransferase from bovine brain: Implications for protein prenylation specificity, Proc. Natl. Acad. Sci USA 88: 5302-5306, the disclosure of which is incorporated herein by reference thereto). Human farnesyl protein transferase was also expressed in E. coli, using cDNA clones encoding both the α and β subunits. The methods used were similar to those published (Omer, C. et al., (1993), Characterization of recombinant human farnesyl protein transferase: Cloning, expression, farnesyl diphosphate binding, and functional homology with yeast prenyl-protein transferase, Biochemistry 32:5167-5176). Human farnesyl protein transferase was partially-purified from the soluble protein fraction of E. coli as described above. the tricyclic farnesyl protein transferase inhibitors disclosed herein inhibited both human and rat enzyme with similar potencies. Two forms of val^12-Ha-Ras protein were prepared as substrates for these enzymes, differing in their carboxy terminal sequence. One form terminated in cysteine-valine-leucine-serine (Ras-CVLS) the other in cystein-valine-leucine-leucine (Ras-CVLL). Ras-CVLS is a substrate for the farnesyl protein transferase while Ras-CVLL is a substrate for geranylgeranyl protein transferase I. The cDNAs encoding these proteins were constructed so that the proteins contain an amino-terminal extension of 6 histidine residues. Both proteins were expressed in Escherichia coli and purified using metal chelate affinity chromatography. The radiolabelled isoprenyl pyrophosphate substrates, [^3H]farnesyl pyrophosphate and [^3H]geranylgeranyl pyrophosphate, were purchased from DuPont/New England Nuclear.
The geranylgeranyl protein transferase I assay was essentially identical to the farnesyl protein transferase assay described above, with two exceptions: [^3H]geranylgeranylpyrophosphate replaced farnesyl pyrophosphate as the isoprenoid donor and Ras-CVLL was the protein acceptor. This is similar to the assay reported by Casey et al (Casey, P. J., et al., (1991), Enzymatic modification of proteins with a geranylgeranyl isoprenoid, Proc. Natl. Acad. Sci, USA 88: 8631-8635, the disclosure of which is incorporated herein by reference thereto).

[4] = test system: T24-BAG4 human bladder carcinoma cells expressing an activated H-ras gene; experiment: Cell Mat assay: inhibition of tumor cell growth; type: cell-based; conditions: Homo sapiens, tIC50
Description: Normal human HEPM fibroblasts were planted in 3.5 cm dishes at a density of 5×10^4 cells/dish in 2 ml growth medium, and incubated for 3-5 d to achieve confluence. Medium was aspirated from each dish and the indicator tumor cells, T24-BAG4 human bladder carcinoma cells expressing an activated H-ras gene, were planted on top of the fibroblast monolayer at a density of 2×10^3cells/dish in 2 ml growth medium, and allowed to attach overnight. Compound-induced colony inhibition was assayed by addition of serial dilutions of compound directly to the growth medium 24 h after tumor cell planting, and incubating cells for an additional 14 d to allow colony formation. Assays were terminated by rinsing monolayers twice with phosphate-buffered saline (PBS), fixing the monolayers with a 1% glutaraldehyde solution in PBS, then visualizing tumor cells by staining with X-Gal (Price, J., et al., Lineage analysis in the vertebrate nervous system by retrovirus-mediated gene transfer, Proc. Natl. Acad. Sci.84, 156-160(1987)). […] Both IC50 values were obtained by determining the density of tumor cells and mat cells by visual inspection and enumeration of cells per colony and the number of colonies under the microscope. The therapeutic index of the compound was quantitatively expressed as the ratio of mIC50/tIC50, with values greater than one indicative of tumor target specificity.

selective for FPT inhibition (versus GGPT) ([3]; FPT versus GGPT): at least 13 fold | activity against GGPT ([3]; at 49 μM): inactive | IC50 [4]: 12.5 µM
SMILES: CCOC(=O)N1CCC(C2(F)c3ccc(Cl)cc3CCc3cccnc32)CC1 (stereo not shown) [Compound 530.00]
% Inhibition (tumor growth relative to vehicle controls) ([1]; ip, 1-5, × 2): 17.8% | % Inhibition (tumor growth relative to vehicle controls) ([1]; po, 1-5, × 4): 69% | average % tumor inhibition ([2]; M27, 100 MPK, 14/wk, ×4): 37% | % Inhibition (tumor growth relative to vehicle controls) ([2]; M27 s.c. in athymic nu/nu mice, BID, 1-7, × 4): 49%
